From patent US10065990B2, “Cyclic peptide compound, and preparation method, pharmaceutical composition and use thereof” (HANGZHOU GUANYU BIO-MEDICAL CO., LTD, priority 2013, dated 2018)
Where two headings read alike, the source gives them in different places.

How the values were obtained:
HDAC1 = HDAC1 (Homo sapiens, UniProt Q13547); assay: HDAC biochemical activity measurement (fluorescent substrate deacetylation);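 also: fluorogenic acetyl-lysine substrate (20 µM) deacetylated by HDAC1, then developer releases fluorophore read at 360 nm excitation and 460 nm emission, inhibitor incubated 30 min at 37 °C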
Sequence of HDAC1 (Q13547 whole entry, species assumed): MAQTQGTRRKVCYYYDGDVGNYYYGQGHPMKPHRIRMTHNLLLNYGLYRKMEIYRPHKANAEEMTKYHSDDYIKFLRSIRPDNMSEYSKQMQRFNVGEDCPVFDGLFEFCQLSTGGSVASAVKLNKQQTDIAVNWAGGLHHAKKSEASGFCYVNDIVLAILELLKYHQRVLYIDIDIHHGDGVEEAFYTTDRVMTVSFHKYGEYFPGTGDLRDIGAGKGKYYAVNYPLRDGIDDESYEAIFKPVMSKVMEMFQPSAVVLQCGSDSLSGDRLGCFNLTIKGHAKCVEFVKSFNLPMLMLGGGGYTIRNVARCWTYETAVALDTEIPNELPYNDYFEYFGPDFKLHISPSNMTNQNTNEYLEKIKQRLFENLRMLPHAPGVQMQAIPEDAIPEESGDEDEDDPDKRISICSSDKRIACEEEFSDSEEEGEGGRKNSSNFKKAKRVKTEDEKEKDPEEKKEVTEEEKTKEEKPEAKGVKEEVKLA

HDAC3 = HDAC3 (Homo sapiens, UniProt O15379); assay: as above;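 also: fluorogenic acetyl-lysine substrate (20 µM) deacetylated by HDAC3, then developer added for 15 min at room temperature, release of fluorophore read at excitation 360 nm, emission 460 nm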
Sequence of HDAC3 (O15379 whole entry, species assumed): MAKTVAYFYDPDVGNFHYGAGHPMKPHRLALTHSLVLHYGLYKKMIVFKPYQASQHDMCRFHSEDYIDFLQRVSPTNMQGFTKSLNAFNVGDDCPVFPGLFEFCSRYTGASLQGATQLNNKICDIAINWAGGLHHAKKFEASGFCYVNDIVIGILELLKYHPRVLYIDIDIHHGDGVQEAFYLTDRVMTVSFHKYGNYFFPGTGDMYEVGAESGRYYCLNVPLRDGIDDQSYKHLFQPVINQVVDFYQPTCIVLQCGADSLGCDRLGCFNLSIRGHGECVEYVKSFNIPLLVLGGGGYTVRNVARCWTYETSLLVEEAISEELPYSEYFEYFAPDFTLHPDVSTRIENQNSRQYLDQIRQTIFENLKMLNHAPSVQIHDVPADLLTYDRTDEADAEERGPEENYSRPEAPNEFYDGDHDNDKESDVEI
Sequence of HDAC3 (Q9Y618 395-489 partner limits assumed, species assumed): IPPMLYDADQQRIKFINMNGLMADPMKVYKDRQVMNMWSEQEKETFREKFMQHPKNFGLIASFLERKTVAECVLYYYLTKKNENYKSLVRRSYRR

[1] = system: A549 (human lung cancer cells); assay: MTT cancer cell growth inhibition; type: cell-based; conditions: Homo sapiens, A549, 72 h, MTT, 72 hours incubation; read-out: GI50 A54
How it was run: (§1)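 Three-day compound exposure (final 10^−5–10^−10 M, three replicate wells) of cells seeded at 1500 per well precedes a 4 h MTT incubation at 37° C. Viability is taken from 570 nm absorbance after DMSO solubilisation, and GI50 calculated from it.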

[2] = system: Hela (human cervical cancer cells); assay: MTT cancer cell growth inhibition; type: cell-based; conditions: Homo sapiens, HeLa, 72 h, MTT, 72 hours incubation; read-out: GI50 Hela
How it was run: as §1

[3] = system: H1975 (non-small cell lung adenocarcinoma); assay: MTT cancer cell growth inhibition; type: cell-based; conditions: Homo sapiens, NCI-H1975, 72 h, MTT, 72 hours incubation, H1975 cells; read-out: GI50 H1975
How it was run: as §1

[4] = system: N-87 (human gastric cancer cells); assay: MTT cancer cell growth inhibition; type: cell-based; conditions: Homo sapiens, 72 h, MTT, 72 hours incubation, N-87 cells; read-out: GI50 N-87
How it was run: as §1

[5] = system: SGC-7901 (human gastric cancer cells); assay: MTT cancer cell growth inhibition; type: cell-based; conditions: Homo sapiens, SGC-7901, 72 h, MTT, 72 hours incubation, SGC-7901 cells; read-out: GI50 SGC-7901
How it was run: as §1

[6] = system: MCF-7 (human breast cancer cells); assay: MTT cancer cell growth inhibition; type: cell-based; conditions: Homo sapiens, MCF7, 72 h, 72 hours incubation, read-out: GI50 MCF
How it was run: as §1

[7] = system: HCC827 (human non-small cell lung cancer cells); assay: MTT cancer cell growth inhibition; type: cell-based; conditions: Homo sapiens, HCC827, 72 h, MTT, 72 hours incubation, HCC827 cells; read-out: GI50 HCC827
How it was run: as §1

[8] = system: K562 (human leukemia cells); assay: MTT cancer cell growth inhibition; type: cell-based; conditions: Homo sapiens, K562, 72 h, MTT, 72 hours incubation, K562 cells; read-out: GI50 K562
How it was run: as §1

[9] = system: Huh-7 (human hepatoma cells); assay: MTT cancer cell growth inhibition; type: cell-based; conditions: Homo sapiens, Huh-7, 72 h, MTT, 72 hours incubation, Huh-7 cells; read-out: GI50 Huh-7
How it was run: as §1

[10] = system: Bel-7402 (human hepatoma cells); assay: MTT cancer cell growth inhibition; type: cell-based; conditions: Homo sapiens, Bel-7402, 72 h, MTT, 72 hours incubation, Bel-7402 cells; read-out: GI50 Bel-7402
How it was run: as §1

[11] = system: PANC-1 (Pac-1, human pancreatic cancer cells); assay: MTT cancer cell growth inhibition; type: cell-based; conditions: Homo sapiens, PANC-1, 72 h, MTT, 72 hours incubation; read-out: GI50 PAN
How it was run: as §1

[12] = system: HT1080 (human fibrosarcoma cells); assay: MTT cancer cell growth inhibition; type: cell-based; conditions: Homo sapiens, HT-1080, 72 h, MTT, 72 hours incubation; read-out: GI50 HT1
How it was run: as §1

[13] = system: KBM-5 (human chronic myelogenous leukemia); assay: MTT cancer cell growth inhibition; type: cell-based; conditions: Homo sapiens, KBM5, 72 h, MTT, 72 hours incubation, KBM-5 cells; read-out: GI50 KBM-5
How it was run: as §1

[14] = system: MDA-MB-231 (breast cancer cells); assay: MTT cancer cell growth inhibition; type: cell-based; conditions: Homo sapiens, MDA-MB-231, 72 h, read-out: GI50 MDA-MB-231, MTT, 72 hours incubation, MDA-MB-231 cells
How it was run: as §1

[15] = system: KBM5-T315I (human chronic myelogenous leukemia); assay: MTT cancer cell growth inhibition; type: cell-based; conditions: Homo sapiens, 72 h, MTT, 72 hours incubation, KBM5-T315I cells; read-out: GI50 KBM5-T315I
How it was run: as §1

[16] = system: BGC-823 (human gastric cancer cells); assay: MTT cancer cell growth inhibition; type: cell-based; conditions: Homo sapiens, BGC-823, 72 h, MTT, 72 hours incubation; read-out: GI50 BG
How it was run: as §1

HDAC2 = HDAC2 (Homo sapiens, UniProt Q92769); assay: HDAC biochemical activity measurement (fluorescent substrate deacetylation);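 also: HDAC2 enzyme with an acetyl-lysine fluorescent substrate, then developer added, fluorescence read at excitation 360 nm and emission 460 nm, inhibition measured across several compound concentrations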; conditions: 37° C. 30 minutes
Sequence of HDAC2 (Q92769 whole entry, species assumed): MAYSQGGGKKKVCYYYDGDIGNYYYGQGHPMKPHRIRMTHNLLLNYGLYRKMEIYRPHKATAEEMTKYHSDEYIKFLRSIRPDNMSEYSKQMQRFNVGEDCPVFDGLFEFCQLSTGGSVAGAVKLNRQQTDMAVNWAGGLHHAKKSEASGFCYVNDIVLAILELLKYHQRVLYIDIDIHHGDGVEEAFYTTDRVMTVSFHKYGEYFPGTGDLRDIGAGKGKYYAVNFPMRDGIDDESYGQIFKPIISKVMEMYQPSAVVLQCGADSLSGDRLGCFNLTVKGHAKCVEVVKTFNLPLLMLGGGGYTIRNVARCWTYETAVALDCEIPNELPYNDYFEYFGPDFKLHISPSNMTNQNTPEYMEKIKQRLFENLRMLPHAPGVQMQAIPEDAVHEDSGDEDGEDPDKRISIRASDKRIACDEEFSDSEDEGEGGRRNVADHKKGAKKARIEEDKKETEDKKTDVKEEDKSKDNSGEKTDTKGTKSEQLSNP

[17] = system: U937 (human leukemia cells); assay: MTT cancer cell growth inhibition; type: cell-based; conditions: Homo sapiens, U-937, 72 h, MTT, 72 hours incubation; read-out: GI50 U93
How it was run: as §1

[18] = system: DU145 (human prostate cancer cells); assay: MTT cancer cell growth inhibition; type: cell-based; conditions: Homo sapiens, DU-145, 72 h, MTT, 72 hours incubation; read-out: GI50 Du1
How it was run: as §1

[19] = system: lncap (prostate cancer cells); assay: MTT cancer cell growth inhibition; type: cell-based; conditions: Homo sapiens, LNCaP, 72 h, MTT, 72 hours incubation; read-out: GI50 lnca
How it was run: as §1

[20] = system: MOLT-4 (human acute lymphoblastic leukemia cells); assay: MTT cancer cell growth inhibition; type: cell-based; conditions: Homo sapiens, MOLT-4, 72 h, MTT, 72 hours incubation; read-out: GI50 Mol
How it was run: as §1

[21] = HDAC1, 37° C. 30 minutes, read-out: IC50 HDAC1
[22] = Table 3, read-out: IC50 HDAC1, D (non-substituent)
[23] = read-out: IC50 HDAC3, HDAC3, 37° C. 30 minutes
[24] = Table 3, column C, read-out: IC50 HDAC1, C (six-membered ring with substituents)

| IC50 (HDAC1; [21]) | IC50 (HDAC1; [22]) | IC50 (HDAC3; [23]) | GI50 [1] | GI50 [2] | GI50 [3] | GI50 [4] | GI50 [5] | GI50 [6] | GI50 [7] | GI50 [8] | GI50 [9] | GI50 [10] | GI50 [11] | GI50 [12] | GI50 [13] | GI50 [14] | GI50 [15] | GI50 [16] | IC50 (HDAC2) | SMILES | other results |
| --- | --- | --- | --- | --- | --- | --- | --- | --- | --- | --- | --- | --- | --- | --- | --- | --- | --- | --- | --- | --- | --- |
| 81 nM | 81 nM | 52 nM | 70 nM | 50 nM | 41 nM | 28 nM | 36 nM | 60 nM | 37 nM | 24 nM | 86 nM | 72 nM | 80 nM | 60 nM | 72 nM | 84 nM | 31 nM | 90 nM | 54 nM | C/C=C1\NC(=O)c2cccc(n2)CNC(=O)C[C@@H](/C=C/CCSC(C)=O)OC(=O)[C@H](C)NC1=O [Compound 12] |  |
| 75 nM | 75 nM | 61 nM | 60 nM | 60 nM | 13 nM | 28 nM | 51 nM | 60 nM | 65 nM | 33 nM | 58 nM | 86 nM | 60 nM | 80 nM | 61 nM | 84 nM | 41 nM | 70 nM | 59 nM | C/C=C1\NC(=O)c2cccc(n2)CNC(=O)C[C@@H](/C=C/CCSC(=O)CC)OC(=O)[C@H](C(C)C)NC1=O [Compound 6] |  |
| 33 nM |  | 24 nM | 40 nM | 90 nM | 62 nM | 53 nM | 43 nM | 30 nM |  | 52 nM | 36 nM |  |  |  | 93 nM | 36 nM | 37 nM | 50 nM | 43 nM | C/C=C1\NC(=O)c2cc(F)cc(n2)CNC(=O)C[C@@H](/C=C/CCSC(=O)CCCCCCC)OC(=O)[C@H](Cc2ccccc2)NC1=O [Compound 70] | IC50 (HDAC1; [24]): 33 nM; GI50 [17]: 60 nM; GI50 [18]: 50 nM; GI50 [19]: 30 nM; GI50 [20]: 30 nM |
| 91 nM |  |  | 38900 nM | 37000 nM | 31 nM | 39 nM | 37 nM | 53700 nM | 55 nM | 17 nM | 51 nM | 97 nM | 770 nM | 18000 nM |  | 98 nM | 31 nM | 5400 nM | 64 nM | C/C=C1\NC(=O)c2cccc(n2)CCNC(=O)C[C@@H](/C=C/CCSC(C)=O)OC(=O)[C@H](C(C)C)NC1=O [Example 26] | IC50 (HDAC3): 46 nM; GI50 [17]: 9500 nM; GI50 [18]: 11700 nM; GI50 [19]: 9000 nM; GI50 [20]: 3350 nM |
| 27 nM |  | 46 nM | 50 nM | 80 nM | 62 nM | 38 nM | 52 nM | 50 nM |  | 52 nM | 36 nM | 73 nM |  | 70 nM | 81 nM | 36 nM | 54 nM | 30 nM | 51 nM | C/C=C1\NC(=O)c2cc(F)cc(n2)CNC(=O)C[C@@H](/C=C/CCSC(=O)CCC)OC(=O)[C@H](C(C)C)NC1=O [Compound 43] | IC50 (HDAC1; [24]): 27 nM; GI50 [17]: 60 nM; GI50 [18]: 50 nM; GI50 [19]: 30 nM; GI50 [20]: 30 nM |
| 92 nM | 92 nM |  | 60 nM | 70 nM | 24 nM | 38 nM | 23 nM | 60 nM | 26 nM | 73 nM | 51 nM | 95 nM | 80 nM | 80 nM | 61 nM | 98 nM | 24 nM | 90 nM | 67 nM | C/C=C1\NC(=O)c2cccc(n2)CNC(=O)C[C@@H](/C=C/CCSC(C)=O)OC(=O)[C@H](CC)NC1=O [Compound 10] | IC50 (HDAC3): 41 nM |
| 179 nM | 179 nM | 39 nM | 90 nM | 60 nM | 24 nM | 51 nM | 52 nM | 80 nM | 48 nM | 26 nM | 92 nM | 97 nM | 600 nM | 70 nM | 53 nM | 95 nM | 24 nM | 90 nM | 63 nM | C=C1NC(=O)c2cccc(n2)CNC(=O)C[C@@H](/C=C/CCSC(C)=O)OC(=O)[C@H](C(C)C)NC1=O [Compound 19] | GI50 [19]: 580 nM; GI50 [20]: 1900 nM |
| 153 nM | 153 nM |  | 80 nM | 70 nM | 38 nM | 34 nM | 43 nM | 80 nM | 41 nM | 53 nM | 61 nM | 94 nM | 80 nM | 90 nM | 51 nM | 93 nM | 63 nM | 90 nM | 162 nM | C/C=C1\NC(=O)c2cccc(n2)CNC(=O)C[C@@H](/C=C/CCSC=O)OC(=O)[C@H](C(C)C)NC1=O [Compound 8] | IC50 (HDAC3): 51 nM |
| 74 nM | 74 nM | 49 nM | 50 nM | 50 nM | 23 nM | 37 nM | 43 nM | 40 nM | 55 nM | 32 nM | 72 nM | 93 nM | 60 nM | 70 nM | 72 nM | 82 nM | 33 nM | 60 nM | 53 nM | C/C=C1\NC(=O)c2cccc(n2)CNC(=O)C[C@@H](/C=C/CCSC(=O)CCC)OC(=O)[C@H](C(C)C)NC1=O [Compound 5] |  |
| 183 nM | 183 nM | 152 nM | 50 nM | 50 nM | 31 nM | 53 nM | 34 nM | 40 nM | 22 nM | 61 nM | 86 nM | 92 nM | 60 nM | 70 nM | 74 nM | 86 nM | 22 nM | 60 nM | 251 nM | C/C=C1\NC(=O)c2cccc(n2)CNC(=O)C[C@@H](/C=C/CCSC(=O)CCCC)OC(=O)[C@H](C(C)C)NC1=O [Compound 4] |  |
